Laboratory results published in US8372612B2, “Production of four carbon alcohols using improved strain” (Butamax(TM) Advanced Biofuels LLC, priority 2007, dated 2013).
Read-outs that look alike come from different tables or passages of the source.

Key:
[1] = system: mutant spoT DPD1848 line as compared to wild type EC100; assay type: cell-based, E. coli; details: for % improved spoT growth over wt: approximately 18 hours, spoT mutant percent growth minus wild type percent growth
Experimental: Kinetic growth studies were performed for the DPD1848 and the control (EC100) using the Bioscreen C Automated Microbial Growth Curve Analyis System (Oy Growth Curves Ab Ltd., Helsinki, Finland), which is an automated 96 well plate system, that monitors growth of many cultures simultaneously, each in a volume of 150 μl. Overnight triplicate cultures of each strain were grown and diluted (1:10) into either LB or LB freshly supplemented with 0.2%, 0.3%. 0.4% or 0.6% 1-butanol (w/v). The growth of each culture was followed for approximately 18 hours. The triplicates were averaged and plotted in FIG. 3 as the final 18 hour time point, normalized to EC100, and given as the percent growth inhibition relative to the no butanol control for each strain.
An additional kinetic growth study was performed as described above. The data is shown in FIG. 4 plotted as OD600 over time for the DPD1848 spoT mutant (A), and wild type (B, EC100).
A Bioscreen experiment, as described in Example 3, was used to compare growth of the mutant spoT DPD1848 line as compared to wild type EC100 in the following chemicals:
The growth of each culture was followed for approximately 18 hours. Triplicate samples were averaged, and expressed as the percent growth relative to the no chemical control for each strain. The data given in Table 8 is represented as percent growth improvement of the spoT mutant relative to wild type, which is the spoT mutant percent growth minus the wild type percent growth for each challenge.

[2] = system: relA::kan line (strain JW2755) and the parent BW25113; assay type: cell-based, E. coli K12
Experimental: A strain of E. coli K12 having a kanamycin marker insertion in the relA coding region (relA::kan) is available in the Keio knockout collection that is described in Example 4. Overnight cultures of the relA::kan line (strain JW2755) and the parent BW25113 were inoculated with fresh colonies and grown in LB at 37° C. with shaking. The next day the cultures were diluted 1:100 into 100 ml of fresh LB in a 1 liter flask and grown for approximately 2 hours. The culture was split into 20 ml aliquots in 125 ml plastic screw top flasks. One culture remained unaltered serving as the no add control, and various concentrations of either 2-butanol or isobutanol were added to the remaining flasks. Absorbance (OD600) was monitored over time. Using a 3 hr time point for growth in isobutanol and a 2.5 hr time point for growth in 2-butanol, fractional growth yields were determined and percent improvement was calculated by subtracting […] and multiplying by 100.

[3] = system: rpoZ::kan line JW3624 and wild type control BW25113; details: 0.4 and 0.6% 1-butanol; FIG. 8
Experimental: Cultures were grown in LB medium containing 0%, 0.4% or 0.6% 1-butanol in shake flasks. The experiments were performed by inoculating 100 ml of medium in a 250 ml plastic flask with 2 ml of an overnight culture grown from a single colony grown at 37° C. and incubating with shaking for approximately two doubling times (1 hour), to an OD600 between 0.2 and 0.3. Each culture was split into five 25 ml cultures in plastic screw top 125 ml flasks and the cultures were maintained at 37° C. in a shaking water bath at 200 rpm. The OD600 was monitored at 0, 30, 90, 120 190, and 260 minutes.
In the cultures above, a final time point was taken at 18 hr and used to calculate growth yield as a function of 1-butanol challenge. For each line grown in 0, 0.4% or 0.6% 1-butanol, the final 18 hour time point was divided by the no 1-butanol 18 hr time point.

[4] = system: rpoZ insertion line (JW3624) and wild type BW25113; details: 0.4% 1-butanol; FIG. 5
Source text: The growth points of triplicate cultures were averaged and plotted in FIG. 5 as absorbance at OD600.

[5] = system: DPD1850 (spoT), DPD1848 (spoT), DPD1865 (rpoZ) and the EC100 control; details: 0.5% (w/v) 1-butanol; LB, 37° C.; FIG. 2
Experimental: After a further 2 hr incubation at 37° C. with shaking, 200 μl samples were transferred to a microtiter plate and optical density at A600 recorded. The microtiter plate was moved to a platform shaker that was located within a plastic box that is in a 37° C. incubator.

E. coli strain EC100 = details: LB agar, closed chamber, 37° C., 1 day
Experimental: LB agar media supplemented with butanol was prepared fresh one day before innoculating at an appropriate volume and cooled for 2 hours in a 50° C. water bath. LB agar plates supplemented with butanol were prepared by dispensing 67 mls of melted agar, using a peristaltic pump and sterile Nalgene tubing, into sterile Omni trays with lids (Nunc mfg no. 242811). […] The plates were allowed to cool and set for approximately an hour before they were stored overnight in closed anaerobic chambers at room temperature in the chemical/biological hood. The next morning, the chambers harboring the plates were opened and allowed to air dry for approximately 1 hour before using.
Plates were incubated in a closed chamber at 37° C. for 1 day. The number of colonies arising and their sizes were scored. […] Butanol concentrations of 0.4% and 0.6% were chosen to screen for tolerance.

[6] = system: L. plantarum spoT mutant MS0280; test: Growth rate in Lacto Synthetic Medium with isobutanol, spoT mutant MS0280; assay type: cell-based, Lactobacillus plantarum; details: for Growth rate: MS0280, 30° C., LSM
Experimental: (§1) Strains MS0280 and MS0281, and Lactobacillus plantarum PN0512 (ATCC #PTA-7727), were tested for tolerance to isobutanol. The strains were streaked on semi-synthetic medium plates, pH 6 (medium composition: 10 mM ammonium sulfate, 5 mM potassium phosphate buffer, pH 6.0, 50 mM MES, pH 6.0, 2 mM MgCl2, 0.7 mM CaCl2, 50 μM MnCl2, 1 μM FeCl3, 1 μM ZnCl2, 1.72 μM CuCl2, 2.53 μM CoCl2, 2.42 μM Na2MoO4, 2 μM thiamine hydrochloride, 10 mM glucose, 0.01% casamino acids, 0.2% yeast extract and 1.5% agar), from frozen stock cultures. The plates that the two mutants (MS0280 and MS0281) were streaked onto also included chloramphenicol at 10 μg/ml. The plates were incubated overnight at 30° C. under anaerobic conditions. The next day, overnight cultures were started by inoculating Lacto Synthetic Medium (LSM; medium composition: 10 mM ammonium sulfate, 5 mM potassium phosphate buffer, pH 6.0, 50 mM MES, pH 6.0, 2 mM MgCl2, 0.7 mM CaCl2, 50 μM MnCl2, 1 μM FeCl3, 1 μM ZnCl2, 1.72 μM CuCl2, 2.53 μM CoCl2, 2.42 μM Na2MoO4, 2 μM thiamine hydrochloride, 10 mM glucose, 0.01% casamino acids and 0.2% yeast extract) with a diluted (1:6) culture with an initial OD600 of 0.02. These overnight cultures were allowed to incubate at 30° C. in a gently shaking water bath. The next morning, the overnight cultures were diluted to have an initial OD600 of 0.1, in a volume of 220 ml of LSM. These starter cultures were allowed to incubate at 30° C. in a gently shaking water bath for 1.25 hours, to ensure the cultures were not in a lag phase. At this time, 20 ml aliquots were dispensed to duplicate flasks containing different volumes of isobutanol, to give final concentrations of 0, 0.5, 1, 1.5 and 2%. The growth of each flask was followed by taking OD600 readings every hour. The natural log of the OD600 values were plotted on a linear scale vs time.

[7] = system: L. plantarum spoT mutant MS0281; test: Growth rate in Lacto Synthetic Medium with isobutanol, spoT mutant MS0281; assay type: cell-based, Lactobacillus plantarum; details: for Growth rate: MS0281, 30° C., LSM
Experimental: as §1

[8] = system: Lactobacillus plantarum PN0512; test: Growth rate in Lacto Synthetic Medium with isobutanol, parental control; assay type: cell-based; details: for Growth rate: PN0512, 30° C., LSM
Experimental: as §1

Compound: CCC(C)=O [2-butanone]
- % improved spoT growth over wt ([1]; chemical at 3% (w/v)): about 3%

Compound: CCC(C)O (stereo not drawn) [2-butanol]
- % improved spoT growth over wt ([1]; chemical at 0.80% (w/v)): about 7%
- % improved spoT growth over wt ([1]; chemical at 0.80% (w/v), listed as 2-BuOH): 7.2%
- % improved spoT growth over wt ([1]; chemical at 1.20% (w/v)): 0%
- % improved spoT growth over wt ([1]; chemical at 1.40% (w/v)): 0%
- % improved spoT growth over wt ([1]; chemical at 1.60% (w/v)): 0%
- Percent improvement of fractional growth yield of relA mutant relative to the parent ([2]; 0.6% 2-butanol, 2.5 hr time point, FIG. 10B): small improvement
- Percent improvement of fractional growth yield of relA mutant relative to the parent ([2]; 0.8% 2-butanol, 2.5 hr time point, FIG. 10B): small improvement

Compound: CCCCO [1-butanol]
- Tolerance of spoT mutant versus wild type strain in terms of growth rate ([1]; all concentrations of 1-butanol tested (0.2%, 0.3%, 0.4%, 0.6% w/v), FIG. 4): more tolerant
- % improved spoT growth over wt ([1]; chemical at 0.2% (w/v)): 11.4%
- % improved spoT growth over wt ([1]; chemical at 0.3% (w/v)): 13.8%
- % improved spoT growth over wt ([1]; chemical at 0.4% (w/v)): about 16.5%
- % improved spoT growth over wt ([1]; chemical at 0.4% (w/v), listed as 1-BuOH): 16.5%
- % improved spoT growth over wt ([1]; chemical at 0.6% (w/v)): 9.7%
- Growth yield of rpoZ mutant versus wild type (18 hr time point divided by no 1-butanol 18 hr time point) [3]: higher growth yields than wild type
- Butanol tolerant phenotype of rpoZ insertion line (OD600 growth) [4]: butanol tolerant phenotype was seen
- Growth of spoT and rpoZ lines relative to EC100 (difference between 4 and 2 hr time points) [5]: improved growth
- Concentration at which only pinpoint colonies were seen (E. coli strain EC100): 0.6%
- Concentration from which colonies were progressively smaller (E. coli strain EC100): ≥ 0.2%
- Concentrations at which no colony formation was observed after overnight incubation (E. coli strain EC100): ≥ 0.7 % (w/v)

Compound: CC(C)CO [isobutanol]
- Growth rate ([6]; isobutanol concentration 0.5%): 0.464 μ/hour
- Growth rate ([6]; isobutanol concentration 1%): 0.426 μ/hour
- Growth rate ([6]; isobutanol concentration 1.5%): 0.382 μ/hour
- Growth rate ([6]; isobutanol concentration 2%): 0.359 μ/hour
- Growth rate inhibition ([6]; the mutants (MS0280), 0.5% isobutanol, growth rates in presence and absence of isobutanol compared): 5%
- % improved spoT growth over wt ([1]; chemical at 0.80% (w/v)): about 13.5%
- % improved spoT growth over wt ([1]; chemical at 0.80% (w/v), listed as IsoBuOH): 13.5%
- % improved spoT growth over wt ([1]; chemical at 1.20% (w/v)): 12.1%
- % improved spoT growth over wt ([1]; chemical at 1.40% (w/v)): 11.4%
- % improved spoT growth over wt ([1]; chemical at 1.60% (w/v)): 10.7%
- Percent improvement of fractional growth yield of relA mutant relative to the parent ([2]; 0.8% isobutanol, 3 hr time point, FIG. 10A): small improvement
- Growth rate ([7]; isobutanol concentration 0.5%): 0.467 μ/hour
- Growth rate ([7]; isobutanol concentration 1%): 0.426 μ/hour
- Growth rate ([7]; isobutanol concentration 1.5%): 0.397 μ/hour
- Growth rate ([7]; isobutanol concentration 2%): 0.359 μ/hour
- Growth rate inhibition ([7]; the mutants (MS0281), 0.5% isobutanol, growth rates in presence and absence of isobutanol compared): 5%
- Growth rate ([8]; isobutanol concentration 0.5%): 0.424 μ/hour
- Growth rate ([8]; isobutanol concentration 1%): 0.385 μ/hour
- Growth rate ([8]; isobutanol concentration 1.5%): 0.364 μ/hour
- Growth rate ([8]; isobutanol concentration 2%): 0.349 μ/hour
- Growth rate inhibition ([8]; the parent (PN0512), 0.5% isobutanol, growth rates in presence and absence of isobutanol compared): 9%

Compound: CCC(C)=O [MEK, methyl ethyl ketone]
- % improved spoT growth over wt ([1]; chemical at 2.50% (w/v)): 0%
- % improved spoT growth over wt ([1]; chemical at 3% (w/v)): 3.1%
- % improved spoT growth over wt ([1]; chemical at 3.50% (w/v)): 4.3%
- % improved spoT growth over wt ([1]; chemical at 4% (w/v)): 33.5%
